The melting point is the temperature of the solid-liquid transition.

The values below come from patent publication US20210070684A1, “PRODUCTION OF HIGHLY PURE META,META-COUPLED BIS(4-ALKYLPHENOL) DERIVATIVES AND USES THEREOF” (KATHOLIEKE UNIVERSITEIT LEUVEN, priority 2017, published 2021).

The structures appear in SMILES notation.

Molecule `COc1cc(C)c(Cc2cc(O)c(OC)cc2C)cc1O` [Reference Example 1, 5,5′-methylenebis(2-methoxy-4-methylphenol)] gave a melting point of 134 to 136 °C.
